{
  "source": "patent US20170275666A1",
  "about": "“Methods for Preparing Rebaudioside I and Uses” (The Coca-Cola Company, priority 2014, published 2017)",
  "molecules": {"B1": {"name": "UGT91D2: UDP-glucosyltransferase (Genbank ACE87855.1) produced in E. coli, tested as lysate (protein, UniProt B3VI56 1-473, looked up)", "UDP-glycosyltransferase 91D2": "MATSDSIVDDRKQLHVATFPWLAFGHILPYLQLSKLIAEKGHKVSFLSTTRNIQRLSSHISPLINVVQLTLPRVQELPEDAEATTDVHPEDIPYLKKASDGLQPEVTRFLEQHSPDWIIYDYTHYWLPSIAASLGISRAHFSVTTPWAIAYMGPSADAMINGSDGRTTVEDLTTPPKWFPFPTKVCWRKHDLARLVPYKAPGISDGYRMGLVLKGSDCLLSKCYHEFGTQWLPLLETLHQVPVVPVGLLPPEVPGDEKDETWVSIKKWLDGKQKGSVVYVALGSEVLVSQTEVVELALGLELSGLPFVWAYRKPKGPAKSDSVELPDGFVERTRDRGLVWTSWAPQLRILSHESVCGFLTHCGSGSIVEGLMFGHPLIMLPIFGDQPLNARLLEDKQVGIEIPRNEEDGCLTKESVARSLRSVVVEKEGEIYKANARELSKIYNDTKVEKEYVSQFVDYLEKNTRAVAIDHES", "modifications": "E. coli lysate", "notes": "UDP-glucosyltransferase (Genbank ACE87855.1) produced in E. coli, tested as lysate"}, "B2": {"name": "UGT76G1var94: UGT76G1 variant, mutations Q266E_P272A_R334K_G348P_L379G; most active round 1 clone (protein, UniProt Q6VAB4 1-458, looked up, variant Q266E P272A R334K G348P L379G)", "UDP-glycosyltransferase 76G1": "MENKTETTVRRRRRIILFPVPFQGHINPILQLANVLYSKGFSITIFHTNFNKPKTSNYPHFTFRFILDNDPQDERISNLPTHGPLAGMRIPIINEHGADELRRELELLMLASEEDEEVSCLITDALWYFAQSVADSLNLRRLVLMTSSLFNFHAHVSLPQFDELGYLDPDDKTRLEEQASGFPMLKVKDIKSAYSNWQILKEILGKMIKQTKASSGVIWNSFKELEESELETVIREIPAPSFLIPLPKHLTASSSSLLDHDRTVFEWLDQQAPSSVLYVSFGSTSEVDEKDFLEIARGLVDSKQSFLWVVRPGFVKGSTWVEPLPDGFLGERGKIVKWVPQQEVLAHPAIGAFWTHSGWNSTLESVCEGVPMIFSDFGGDQPLNARYMSDVLKVGVYLENGWERGEIANAIRRVMVDEEGEYIRQNARVLKQKADVSLMKGGSSYESLESLVSYISSL"}, "B3": {"name": "UGT76G1var96: UGT76G1 variant, mutations F22L_E229A_L243P_F377C_A385T (protein, UniProt Q6VAB4 1-458, looked up, variant F22L E229A L243P F377C A385T)", "UDP-glycosyltransferase 76G1": "B2 UDP-glycosyltransferase 76G1 with F22L, E229A, L243P, E266Q, A272P, K334R, P348G, F377C, G379L, A385T"}, "B4": {"name": "UGT76G1var7: UGT76G1 variant, mutations F22L_I43V_A239V (protein, UniProt Q6VAB4 1-458, looked up, variant F22L I43V A239V)", "UDP-glycosyltransferase 76G1": "B2 UDP-glycosyltransferase 76G1 with F22L, I43V, A239V, E266Q, A272P, K334R, P348G, G379L"}},
  "key": {"[1]": {"assay": "Sensory characteristics of rebaudioside I compared to rebaudioside M (taste panel)", "assay_type": "in vivo", "details": "400 ppm in water, approximately 4° C., seven panelists", "procedure": "Rebaudioside I was evaluated to determine its sensory profile, including in comparison to rebaudioside M.\nSamples were prepared at a concentration of 400 ppm in a water matrix. Analysis to determine the actual concentration of the samples was preformed.\nSeven panelists participated in testing of rebaudioside I and rebaudioside M. Samples were served at approximately 4° C. Panelists were instructed to take 1 sip of the sample (10 mL), hold in mouth for 5 seconds, expectorate and rate the taste attributes, as described below. A 5 minute break was placed between each sample and panelist were instructed to cleanse their palates with at least 1 bite of an unsalted cracker and 2 sips of filtered water. Samples were randomized and each sample was present in replicate in the session.\nAttributes evaluated included: sweet taste intensity (maximum level of sweeteness in mouth during 5 seconds); bitter taste intensity (maximum level of bitterness in mouth during 5 seconds); overall maximum sweet intensity (maximum sweet intensity experienced from time sip is taken up to 1 minute); overall maximum bitter intensity (maximum bitter intensity experienced from time sip is taken up to 1 minute); other intensity (intensity of any taste, aromatic or mouth feel other than sweet and bitter (e.g., metallic, plastic, licorice, etc.); sweet linger intensity (sweet intensity 1 minute after expectoring the sample); and bitter aftertaste intensity (bitter intensity one minute after expectoring the sample).\nFishers LSD was used to compare significant differences between the mean scores."}, "[2]": {"assay": "Taste properties of beverage formulations (flavored black tea, enhanced water, lemon-lime flavored sparkling beverage)", "assay_type": "in vivo", "procedure": "Reb I levels are evaluated in an zero calorie Lemon-lime-flavored sparking beverage base to determine the effect of increasing sweetness. Samples of the Lemon-lime-flavored sparkling beverage with Reb I in amounts between 400 and 750 ppm (in 50 ppm increments) and 3.5% allulose are prepared. […] Samples having 550 ppm and 600 ppm Reb I are found to be the closest in sweetness level to an 10.0 Brix HFCS sweetened Lemon-lime flavored sparkling beverage formulation."}, "[3]": {"assay": "Activity of in-vivo preparations of UGT91D2, transformation of Rubusoside to Stevioside", "assay_type": "biochemical", "details": "per mL of lysate, 30° C., pH 7.2", "procedure": "Activity tests were performed at 5 mL scale with 1000 μL of lysate for the transformation of Rubusoside to Stevioside using 0.5 mM of substrate, 2.5 mM of UDP-Glucose and 3 mM MgCl2 in 50 mM Sodium Phosphate buffer at pH 7.2. Samples were taken and analyzed by HPLC."}, "[4]": {"assay": "Directed evolution of UGT76G1, conversion of Rebaudioside D to Rebaudioside M (round 1)", "assay_type": "biochemical", "details": "0.5 mM Rebaudioside D, 2.5 mM UDP-Glucose, 100 μL fresh lysate, 30° C., pH 7.2", "how_it_was_run": "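UGT76G1 variants carrying 3-5 designed mutations were expressed in E. coli BL21(DE3) (pET30a+, 44 h at 20° C) and lysed. Lysate was reacted with 0.5 mM Reb D, 2.5 mM UDP-glucose, 3 mM MgCl2 in 50 mM phosphate pH 7.2 at 30° C; HPLC-CAD sampling at 2, 4, 7, 24 h gave conversion and initial rate.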"}, "[5]": {"assay": "Directed evolution of UGT76G1, conversion of Rebaudioside D to Rebaudioside M (Round 2), normalized to Round1-Var94", "assay_type": "biochemical", "details": "round 2 clones; baseline clone Round1-Var94 defined as 100%; lysate, Rebaudioside D 0.5 mM, UDP-Glucose 2.5 mM, 30° C., pH 7.2, HPLC", "description": "A list of 53 mutations was established containing different identified positive mutations from the first round and new mutations obtained by DNA2.0 ProteinGPS™ strategy. This list of mutations was subsequently used to design 92 variant genes that contained each 3 different mutations. After codon-optimized for expression in E. coli the genes were synthesized, subcloned in the pET30a+ plasmid and used for transformation of E. coli BL21 (DE3) chemically competent cells. The obtained cells were grown in Petri-dishes on solid LB medium in the presence of Kanamycin. Suitable colonies were selected and allowed to grow in liquid LB medium in tubes. Glycerol was added to the suspension as cryoprotectant and 400 μL aliquots were stored at −20° C. and at −80° C.\nThese storage aliquots of E. coli BL21(DE3) containing the pET30a+_UGT76G1var plasmids were thawed and added to LBGKP medium (20 g/L Luria Broth Lennox; 50 mM PIPES buffer pH 7.00; 50 mM Phosphate buffer pH 7.00; 2.5 g/L glucose and 50 mg/L of Kanamycine). This culture was allowed to shake in a 96 microtiter plate at 30° C. for 8 h.\n3.95 mL of production medium containing 60 g/L of Overnight Express™ Instant TB medium (Novagen®), 10 g/L of glycerol and 50 mg/L of Kanamycin was inoculated with 50 μL of above described culture. In a 48 deepwell plate the resulting culture was allowed to stir at 20° C. […]"}},
  "note": "Residue numbers refer to the chain shown, from its start. Several values for one entry are separate records, joined by “and”; a condition that tells them apart may be missing. Identical values can stand only once.",
  "data": [
    {"molecule": "C=C1C[C@@]23CC[C@H]4[C@@](C)(CCC[C@@]4(C)C(=O)OC4OC(CO)C(O)C(OC5OC(CO)C(O)C(O)C5O)C4O)[C@@H]2CCC1(OC1OC(CO)C(O)C(OC2OC(CO)C(O)C(O)C2O)C1OC1OC(CO)C(O)C(O)C1O)C3", "note": "(stereo partly drawn) [Reb I]", "values": [
      {"measurement": "Bitter Aftertaste Intensity", "setting": "[1]", "value": 1.3},
      {"measurement": "Bitter Taste Intensity", "setting": "[1]", "value": 1.4},
      {"measurement": "Other Intensity", "setting": "[1]", "value": 1.3},
      {"measurement": "Overall Max Bitterness Intensity", "setting": "[1]", "value": 2.1},
      {"measurement": "Overall Max Sweetness Intensity", "setting": "[1]", "value": 7.2},
      {"measurement": "Sweet Linger Intensity", "setting": "[1]", "value": 3.5},
      {"measurement": "Sweet Taste Intensity", "setting": "[1]", "value": 5.9},
      {"measurement": "Overall Max Sweetness Intensity", "setting": "[1]; listed as Rebaudioside I", "value": "lower"},
      {"measurement": "Sweet Linger Intensity", "setting": "[1]; listed as Rebaudioside I", "value": "lower"},
      {"measurement": "Sweet Taste Intensity", "setting": "[1]; listed as Rebaudioside I", "value": "lower"},
      {"measurement": "taste properties compared to Reb A drink", "setting": "[2]; flavored zero calorie black tea drink, 275 ppm", "value": "much cleaner in finish with less sweetness linger and a more rounded overall sweetness profile"},
      {"measurement": "Reb I concentration closest in sweetness level to 10.0 Brix HFCS sweetened Lemon-lime flavored sparkling beverage", "setting": "[2]; zero calorie Lemon-lime-flavored sparkling beverage with 3.5% allulose", "value": "550 ppm and 600 ppm"},
      {"measurement": "taste compared to Reb A-containing formulations", "setting": "[2]; zero calorie Lemon-lime-flavored sparkling beverage, 400 to 750 ppm Reb I and 3.5% allulose", "value": "significantly better than comparable Reb A-containing formulations"},
      {"measurement": "taste properties compared to Reb A drink", "setting": "[2]; zero calorie enhanced water drink, 200 ppm", "value": "cleaner in finish and has a reduced sweetness linger and a more rounded overall sweetness taste quality"}
    ]},
    {"molecule": "C=C1C[C@@]23CC[C@H]4[C@@](C)(CCC[C@@]4(C)C(=O)O[C@@H]4O[C@H](CO)[C@@H](O)[C@H](O[C@@H]5O[C@H](CO)[C@@H](O)[C@H](O)[C@H]5O)[C@H]4O[C@@H]4O[C@H](CO)[C@@H](O)[C@H](O)[C@H]4O)[C@@H]2CC[C@]1(O[C@@H]1O[C@H](CO)[C@@H](O)[C@H](O[C@@H]2O[C@H](CO)[C@@H](O)[C@H](O)[C@H]2O)[C@H]1O[C@@H]1O[C@H](CO)[C@@H](O)[C@H](O)[C@H]1O)C3", "note": "[Reb M, Rebaudioside M, reference compound]", "values": [
      {"measurement": "Bitter Aftertaste Intensity", "setting": "[1]", "value": 0.8},
      {"measurement": "Bitter Taste Intensity", "setting": "[1]", "value": 1.0},
      {"measurement": "Other Intensity", "setting": "[1]", "value": 0.9},
      {"measurement": "Overall Max Bitterness Intensity", "setting": "[1]", "value": 1.6},
      {"measurement": "Overall Max Sweetness Intensity", "setting": "[1]", "value": 8.0},
      {"measurement": "Sweet Linger Intensity", "setting": "[1]", "value": 4.9},
      {"measurement": "Sweet Taste Intensity", "setting": "[1]", "value": 7.4}
    ]},
    {"molecule": "B1", "values": [
      {"measurement": "Transformation activity Rubusoside to Stevioside", "setting": "[3]; plasmid pET30a+, expression strain ArcticExpress (DE3)", "value": 21, "unit": "mU mL^−1"},
      {"measurement": "Transformation activity Rubusoside to Stevioside", "setting": "[3]; plasmid pET30a+, expression strain Tuner (DE3)", "value": 28, "unit": "mU mL^−1"},
      {"measurement": "Transformation activity Rubusoside to Stevioside", "setting": "[3]; plasmid pMAL, expression strain ArcticExpress", "value": 60, "unit": "mU mL^−1"},
      {"measurement": "Transformation activity Rubusoside to Stevioside", "setting": "[3]; plasmid pMAL, expression strain BL21", "value": 9, "unit": "mU mL^−1"}
    ]},
    {"molecule": "B2", "values": [
      {"measurement": "Conversion Reb D to Reb M after 24 h (%)", "setting": "[4]", "value": 72.0, "unit": "%"},
      {"measurement": "initial rate (Reb M area/min)", "setting": "[4]", "value": "7.9E+07", "unit": "Reb M area/min"},
      {"measurement": "Normalized conversion Reb D to Reb M after 22 h.", "setting": "[5]", "value": 100, "unit": "%"},
      {"measurement": "Normalized initial rate (0-4 h)", "setting": "[5]", "value": 100, "unit": "%"}
    ]},
    {"molecule": "B3", "values": [
      {"measurement": "Conversion Reb D to Reb M after 24 h (%)", "setting": "[4]", "value": 1.2, "unit": "%"},
      {"measurement": "initial rate (Reb M area/min)", "setting": "[4]", "value": "2.7E+05", "unit": "Reb M area/min"}
    ]},
    {"molecule": "B4", "values": [
      {"measurement": "Conversion Reb D to Reb M after 24 h (%)", "setting": "[4]", "value": 0.2, "unit": "%"},
      {"measurement": "initial rate (Reb M area/min)", "setting": "[4]", "value": "−6.0E+04", "unit": "Reb M area/min"}
    ]}
  ]
}
